According to US9216981B2, “Purinylpyridinylamino-2,4-difluorophenyl sulfonamide derivative, pharmaceutically acceptable salt thereof, preparation method thereof, and pharmaceutical composition with inhibitory activity against Raf kinase, containing same as active ingredient” (Medpacto, Inc., priority 2010, dated 2015):

Legend:
[1] = biological target: B-Raf (Homo sapiens (Human), UniProt P15056); experiment: B-Raf kinase activity (B-Raf/MEK1/MAPK2 cascade, MBP phosphorylation, [γ-32P]ATP); type: biochemical; conditions: activated B-Raf, inactivated MEK1, inactivated MAPK2, 30° C., 30 minutes, read-out: B-Raf Enzyme Activity
Method: To check the B-Raf kinase inhibitory activity of the compounds of the present invention, the following experiments were conducted.
20 μl of diluting solvent (20 mM MOPS, pH 7.2, 25 mM β-glycerol phosphate, 5 mM EGTA, 1 mM sodium orthovanadate, 1 mM dithiothreitol) and 10 μl of Mg/ATP mixed solution (500 μM ATP, 75 mM magnesium chloride) were added into a centrifuge tube, the derivative compound of Formula 1 was added or the compounds of the Examples were not added as a control group, and then 1 ng of activated B-Raf, 0.4 ng of inactivated MEK1, and 1 μg of inactivated MAPK2 were added. The solutions in the tube were collected on the bottom via centrifugation and were reacted at 30° C. for 30 minutes. After taking 4 μl of the mixed solution, the test proceeded to the next step.
(2) Phosphorylation of Matrix Protein MBP by MAPK2
10 μl of diluting solvent, 20 μg of MBP used as a matrix, and 10 μl of diluted [γ-32P]ATP (1 μCi/μL) were added into the 4 μl of the mixed solution obtained from (1). The solutions in the tube were collected on the bottom via centrifugation and were reacted at 30° C. for 30 minutes. And 25 μl of the reacted solution was put carefully on the center of a filter paper (2 cm×2 cm P81) for 30 seconds. Afterwards, the filter paper was cleaned with 0.75% phosphoric acid for 10 minutes three times and with acetone for 5 minutes one time. The filter paper was then moved to a scintillation vial and 5 ml of scintillation cocktail was added thereto. The inhibition rate (IC50) over B-Raf activity was measured by reading radioactivity through a scintillation counter while comparing to the control group.

[2] = system: A375P cell line; experiment: B-Raf cell activity inhibition (A375P growth inhibition, MTT assay); type: cell-based; conditions: A375P human melanoma, V600E mutant of B-Raf, 72 hours
Method: To check the B-Raf cell activity inhibitory capability of the compounds of the present invention, the following experiments were conducted in A375P cell line (ATCC). […] A375 cell was maintained in DMEM supplemented with 10% fetal bovine serum, glutamine (2 mM), penicillin (100 U/mL), and streptomycin (100 μg/mL). The cell was maintained at 37° C., and in 5% CO2 and 100% humidity. To conduct the growth inhibition test, the cell was plated by using a white 384-well microplate, with 1000 cells/20 μl plated per 1 well. After 24 hours, 5 μl of 5× stock solution of drug was added. All the drugs were initially prepared with 200× stock solution in DMSO, and the final concentration of DMSO was 0.5%. The cell was incubated at 37° C. for 72 hours. For MTT assay, ‘CellTiter 96 (R) Non-Radioactive Cell Proliferation Assay (G4100)’ kit by Promega Corp. was used. 15 μl of dye solution of the Promega kit was put into each well and was cultured in the incubator for 4 hours. And 100 μl of each Solubilization/Stop Solution substance of the kit was added and fixed in the incubator for 24 hours again. And then, absorbance was measured by using a 96-well plate reader with 570 nm of absorbance.

B-Raf, sequence (P15056 whole entry): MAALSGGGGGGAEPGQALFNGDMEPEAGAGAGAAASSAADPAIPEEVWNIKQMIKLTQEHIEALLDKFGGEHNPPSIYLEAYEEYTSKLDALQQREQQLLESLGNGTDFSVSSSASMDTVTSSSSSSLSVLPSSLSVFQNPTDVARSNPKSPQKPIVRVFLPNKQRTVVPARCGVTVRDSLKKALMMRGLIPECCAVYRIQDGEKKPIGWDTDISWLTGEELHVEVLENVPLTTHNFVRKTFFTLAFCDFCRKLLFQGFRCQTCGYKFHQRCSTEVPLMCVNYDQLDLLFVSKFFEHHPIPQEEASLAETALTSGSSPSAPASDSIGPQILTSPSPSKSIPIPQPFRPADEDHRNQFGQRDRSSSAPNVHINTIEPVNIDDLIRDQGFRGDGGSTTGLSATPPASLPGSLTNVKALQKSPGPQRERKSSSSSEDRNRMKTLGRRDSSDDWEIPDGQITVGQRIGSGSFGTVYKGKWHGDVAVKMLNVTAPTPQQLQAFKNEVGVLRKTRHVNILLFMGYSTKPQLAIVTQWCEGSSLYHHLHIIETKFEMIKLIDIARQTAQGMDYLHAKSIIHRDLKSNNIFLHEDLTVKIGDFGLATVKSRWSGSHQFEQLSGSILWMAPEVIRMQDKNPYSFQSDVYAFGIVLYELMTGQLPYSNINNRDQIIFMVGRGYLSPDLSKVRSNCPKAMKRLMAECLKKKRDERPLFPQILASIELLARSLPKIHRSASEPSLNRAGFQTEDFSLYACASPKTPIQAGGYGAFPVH

Compound | IC50 [1] [nM] | IC50 [2] [nM]
CC(C)S(=O)(=O)Nc1ccc(F)c(Nc2ncccc2-c2ncnc3[nH]cnc23)c1F [Example 1, N-(3-(3-(9H-purin-6-yl)pyridin-2-ylamino)-2,4-difluorophenyl)propane-2-sulfonamide] | 17 | 120
O=S(=O)(Nc1ccc(F)c(Nc2ncccc2-c2ncnc3[nH]cnc23)c1F)c1cccc(C(F)(F)F)c1 [Example 2, N-(3-(3-(9H-purin-6-yl)pyridin-2-ylamino)-2,4-difluorophenyl)-3-(trifluoromethyl)benzenesulfonamide] | 8.8 | 230
O=S(=O)(Nc1ccc(F)c(Nc2ncccc2-c2ncnc3[nH]cnc23)c1F)c1ccc(C(F)(F)F)cc1 [Example 3, N-(3-(3-(9H-purin-6-yl)pyridin-2-ylamino)-2,4-difluorophenyl)-4-(trifluoromethyl)benzenesulfonamide] | 30 | 5200
O=S(=O)(Nc1ccc(F)c(Nc2ncccc2-c2ncnc3[nH]cnc23)c1F)c1cccs1 [Example 4, N-(3-(3-(9H-purin-6-yl)pyridin-2-ylamino)-2,4-difluorophenyl)thiophene-2-sulfonamide] | 12 | 30
CCCS(=O)(=O)Nc1ccc(F)c(Nc2ncccc2-c2ncnc3[nH]cnc23)c1F [Example 5, N-(3-(3-(9H-purin-6-yl)pyridin-2-ylamino)-2,4-difluorophenyl)propan-1-sulfonamide] | 23 | 310
O=S(=O)(Nc1ccc(F)c(Nc2ncccc2-c2ncnc3[nH]cnc23)c1F)c1ccc(Cl)c(Cl)c1 [Example 6, N-(3-(3-(9H-purin-6-yl)pyridin-2-ylamino)-2,4-difluorophenyl)-3,4-dichlorobenzenesulfonamide] | 720 | 2800
O=S(=O)(Nc1ccc(F)c(Nc2ncccc2-c2ncnc3[nH]cnc23)c1F)c1cc2ccccc2o1 [Example 7, N-(3-(3-(9H-purin-6-yl)pyridin-2-ylamino)-2,4-difluorophenyl)benzofuran-2-sulfonamide] | 832 | 4300
O=S(=O)(Nc1ccc(F)c(Nc2ncccc2-c2ncnc3[nH]cnc23)c1F)c1ccc(Cl)cc1F [Example 8, N-(3-(3-(9H-purin-6-yl)pyridin-2-ylamino)-2,4-difluorophenyl)-4-chloro-2-fluorobenzenesulfonamide] | 33.7 | 700
O=[N+]([O-])c1ccccc1CS(=O)(=O)Nc1ccc(F)c(Nc2ncccc2-c2ncnc3[nH]cnc23)c1F [Example 9, N-(3-(3-(9H-purin-6-yl)pyridin-2-ylamino)-2,4-difluorophenyl)-1-(2-nitrophenyl)methansulfonamide] | 1500 | 
COc1ccc(S(=O)(=O)Nc2ccc(F)c(Nc3ncccc3-c3ncnc4[nH]cnc34)c2F)cc1OC [Example 10, N-(3-(3-(9H-purin-6-yl)pyridin-2-ylamino)-2,4-difluorophenyl)-3,4-dimethoxybenzenesulfonamide] | 1200 | 10200
O=S(=O)(Nc1ccc(F)c(Nc2ncccc2-c2ncnc3[nH]cnc23)c1F)C1CCCCC1 [Example 11, N-(3-(3-(9H-purin-6-yl)pyridin-2-ylamino)-2,4-difluorophenyl)cyclohexanesulfonamide] | 206 | 340
O=S(=O)(Nc1ccc(F)c(Nc2ncccc2-c2ncnc3[nH]cnc23)c1F)c1ccc(OC(F)(F)F)cc1 [Example 12, N-(3-(3-(9H-purin-6-yl)pyridin-2-ylamino)-2,4-difluorophenyl)-4-(trifluoromethoxy)benzenesulfonamide] | 610 | 600
O=S(=O)(Nc1ccc(F)c(Nc2ncccc2-c2ncnc3[nH]cnc23)c1F)c1ccc(F)cc1C(F)(F)F [Example 13, N-(3-(3-(9H-purin-6-yl)pyridin-2-ylamino)-2,4-difluorophenyl)-4-fluoro-2-(trifluoromethyl)benzenesulfonamide] | 420 | 150
O=S(=O)(Nc1ccc(F)c(Nc2ncccc2-c2ncnc3[nH]cnc23)c1F)c1ccc(Cl)s1 [Example 44] |  | 200
